In paper PMC4716540 (British Journal of Cancer, 2015):

System: patients with confirmed relapsed/refractory MM, CLL, or NHL
Assay: Phase I safety and tolerability: adverse events, DLT, MTD, RP2D
Assay type: in vivo, human

`CCc1c(O)cc(O)c(C(=O)c2ccc(OCCN3CCOCC3)c(OC)c2)c1CC(=O)N(CCOC)CCOC` [KW-2478] was tested, and the “Number of treatment-related AEs per patient (average)” value (14 mg m^–2) was 1.0, the “AE (treatment-emergent)” value (14 mg m^–2 (n=3)) was 3 (100.0) No. of patients (%) and the “Abdominal pain (any AE)” value (14 mg m^–2 (n=3)) was 0 No. of patients (%). The “Acne (any AE)” value (14 mg m^–2 (n=3)) was 0 No. of patients (%), the “Anaemia (any AE)” value (14 mg m^–2 (n=3)) was 0 No. of patients (%) and the “Anorexia (any AE)” value (14 mg m^–2 (n=3)) was 0 No. of patients (%). For the same compound, the “Back pain (any AE)” value (14 mg m^–2 (n=3)) was 1 (33.3) No. of patients (%), the “Diarrhoea (any AE)” value (14 mg m^–2 (n=3)) was 0 No. of patients (%) and the “Dizziness (any AE)” value (14 mg m^–2 (n=3)) was 0 No. of patients (%). For the same compound, the “Fatigue (any AE)” value (14 mg m^–2 (n=3)) was 1 (33.3) No. of patients (%), the “Haemoglobin decreased (any AE)” value (14 mg m^–2 (n=3)) was 0 No. of patients (%) and the “Hair disorder (any AE)” value (14 mg m^–2 (n=3)) was 0 No. of patients (%). For the same compound, the “Headache (any AE)” value (14 mg m^–2 (n=3)) was 1 (33.3) No. of patients (%), the “Herpes simplex infection (any AE)” value (14 mg m^–2 (n=3)) was 0 No. of patients (%) and the “Hypertension (any AE)” value (14 mg m^–2 (n=3)) was 0 No. of patients (%). The “LRTI (any AE)” value (14 mg m^–2 (n=3)) was 0 No. of patients (%), the “Musculoskeletal chest pain (any AE)” value (14 mg m^–2 (n=3)) was 0 No. of patients (%) and the “Nausea (any AE)” value (14 mg m^–2 (n=3)) was 1 (33.3) No. of patients (%). For the same compound, the “Oral herpes (any AE)” value (14 mg m^–2 (n=3)) was 0 No. of patients (%), the “Rhinitis (any AE)” value (14 mg m^–2 (n=3)) was 1 (33.3) No. of patients (%) and the “Serious AE” value (14 mg m^–2 (n=3)) was 0 No. of patients (%). For the same compound, the “Treatment-related AE” value (14 mg m^–2 (n=3)) was 2 (66.7) No. of patients (%), the “Vomiting (any AE)” value (14 mg m^–2 (n=3)) was 0 No. of patients (%) and the “AE (treatment-emergent)” value (28 mg m^–2 (n=3)) was 3 (100.0) No. of patients (%). For the same compound, the “Abdominal pain (any AE)” value (28 mg m^–2 (n=3)) was 0 No. of patients (%), the “Acne (any AE)” value (28 mg m^–2 (n=3)) was 1 (33.3) No. of patients (%) and the “Anaemia (any AE)” value (28 mg m^–2 (n=3)) was 0 No. of patients (%). For the same compound, the “Anorexia (any AE)” value (28 mg m^–2 (n=3)) was 0 No. of patients (%), the “Back pain (any AE)” value (28 mg m^–2 (n=3)) was 1 (33.3) No. of patients (%) and the “Diarrhoea (any AE)” value (28 mg m^–2 (n=3)) was 0 No. of patients (%). For the same compound, the “Dizziness (any AE)” value (28 mg m^–2 (n=3)) was 0 No. of patients (%), the “Fatigue (any AE)” value (28 mg m^–2 (n=3)) was 0 No. of patients (%) and the “Haemoglobin decreased (any AE)” value (28 mg m^–2 (n=3)) was 0 No. of patients (%). The “Hair disorder (any AE)” value (28 mg m^–2 (n=3)) was 1 (33.3) No. of patients (%), the “Headache (any AE)” value (28 mg m^–2 (n=3)) was 0 No. of patients (%) and the “Herpes simplex infection (any AE)” value (28 mg m^–2 (n=3)) was 1 (33.3) No. of patients (%). For the same compound, the “Hypertension (any AE)” value (28 mg m^–2 (n=3)) was 0 No. of patients (%), the “LRTI (any AE)” value (28 mg m^–2 (n=3)) was 0 No. of patients (%) and the “Musculoskeletal chest pain (any AE)” value (28 mg m^–2 (n=3)) was 0 No. of patients (%). For the same compound, the “Nausea (any AE)” value (28 mg m^–2 (n=3)) was 1 (33.3) No. of patients (%), the “Oral herpes (any AE)” value (28 mg m^–2 (n=3)) was 1 (33.3) No. of patients (%) and the “Rhinitis (any AE)” value (28 mg m^–2 (n=3)) was 1 (33.3) No. of patients (%). The “Serious AE” value (28 mg m^–2 (n=3)) was 0 No. of patients (%), the “Treatment-related AE” value (28 mg m^–2 (n=3)) was 2 (66.7) No. of patients (%) and the “Vomiting (any AE)” value (28 mg m^–2 (n=3)) was 1 (33.3) No. of patients (%). For the same compound, the “AE (treatment-emergent)” value (47 mg m^–2 (n=4)) was 4 (100.0) No. of patients (%), the “Abdominal pain (any AE)” value (47 mg m^–2 (n=4)) was 0 No. of patients (%) and the “Acne (any AE)” value (47 mg m^–2 (n=4)) was 1 (25.0) No. of patients (%). The “Anaemia (any AE)” value (47 mg m^–2 (n=4)) was 1 (25.0) No. of patients (%), the “Anorexia (any AE)” value (47 mg m^–2 (n=4)) was 0 No. of patients (%) and the “Back pain (any AE)” value (47 mg m^–2 (n=4)) was 0 No. of patients (%). For the same compound, the “Diarrhoea (any AE)” value (47 mg m^–2 (n=4)) was 2 (50.0) No. of patients (%), the “Dizziness (any AE)” value (47 mg m^–2 (n=4)) was 0 No. of patients (%) and the “Fatigue (any AE)” value (47 mg m^–2 (n=4)) was 0 No. of patients (%). For the same compound, the “Haemoglobin decreased (any AE)” value (47 mg m^–2 (n=4)) was 0 No. of patients (%), the “Hair disorder (any AE)” value (47 mg m^–2 (n=4)) was 1 (25.0) No. of patients (%) and the “Headache (any AE)” value (47 mg m^–2 (n=4)) was 0 No. of patients (%). The “Herpes simplex infection (any AE)” value (47 mg m^–2 (n=4)) was 0 No. of patients (%), the “Hypertension (any AE)” value (47 mg m^–2 (n=4)) was 2 (50.0) No. of patients (%) and the “LRTI (any AE)” value (47 mg m^–2 (n=4)) was 0 No. of patients (%). For the same compound, the “Musculoskeletal chest pain (any AE)” value (47 mg m^–2 (n=4)) was 0 No. of patients (%), the “Nausea (any AE)” value (47 mg m^–2 (n=4)) was 0 No. of patients (%) and the “Oral herpes (any AE)” value (47 mg m^–2 (n=4)) was 0 No. of patients (%). For the same compound, the “Rhinitis (any AE)” value (47 mg m^–2 (n=4)) was 1 (25.0) No. of patients (%), the “Serious AE” value (47 mg m^–2 (n=4)) was 0 No. of patients (%) and the “Treatment-related AE” value (47 mg m^–2 (n=4)) was 3 (75.0) No. of patients (%). For the same compound, the “Vomiting (any AE)” value (47 mg m^–2 (n=4)) was 1 (25.0) No. of patients (%), the “AE (treatment-emergent)” value (71 mg m^–2 (n=4)) was 4 (100.0) No. of patients (%) and the “Abdominal pain (any AE)” value (71 mg m^–2 (n=4)) was 0 No. of patients (%). The “Acne (any AE)” value (71 mg m^–2 (n=4)) was 1 (25.0) No. of patients (%), the “Anaemia (any AE)” value (71 mg m^–2 (n=4)) was 0 No. of patients (%) and the “Anorexia (any AE)” value (71 mg m^–2 (n=4)) was 0 No. of patients (%). The “Back pain (any AE)” value (71 mg m^–2 (n=4)) was 0 No. of patients (%), the “Diarrhoea (any AE)” value (71 mg m^–2 (n=4)) was 2 (50.0) No. of patients (%) and the “Dizziness (any AE)” value (71 mg m^–2 (n=4)) was 2 (50.0) No. of patients (%). The “Fatigue (any AE)” value (71 mg m^–2 (n=4)) was 1 (25.0) No. of patients (%), the “Haemoglobin decreased (any AE)” value (71 mg m^–2 (n=4)) was 1 (25.0) No. of patients (%) and the “Hair disorder (any AE)” value (71 mg m^–2 (n=4)) was 1 (25.0) No. of patients (%). For the same compound, the “Headache (any AE)” value (71 mg m^–2 (n=4)) was 2 (50.0) No. of patients (%), the “Herpes simplex infection (any AE)” value (71 mg m^–2 (n=4)) was 1 (25.0) No. of patients (%) and the “Hypertension (any AE)” value (71 mg m^–2 (n=4)) was 2 (50.0) No. of patients (%). The “LRTI (any AE)” value (71 mg m^–2 (n=4)) was 1 (25.0) No. of patients (%), the “Musculoskeletal chest pain (any AE)” value (71 mg m^–2 (n=4)) was 0 No. of patients (%) and the “Nausea (any AE)” value (71 mg m^–2 (n=4)) was 2 (50.0) No. of patients (%). The “Oral herpes (any AE)” value (71 mg m^–2 (n=4)) was 1 (25.0) No. of patients (%), the “Rhinitis (any AE)” value (71 mg m^–2 (n=4)) was 1 (25.0) No. of patients (%) and the “Serious AE” value (71 mg m^–2 (n=4)) was 2 (50) No. of patients (%). For the same compound, the “Treatment-related AE” value (71 mg m^–2 (n=4)) was 4 (100.0) No. of patients (%), the Death (71 mg m^–2 (n=4), considered unrelated to medication) was 1 (25) No. of patients (%) and the “AE (treatment-emergent)” value (99 mg m^–2 (n=4)) was 4 (100.0) No. of patients (%).
